The source of these data is US11639506B2, “Recombinant yeast having increased tolerance to ionic liquids and methods of use” (Wisconsin Alumni Research Foundation, priority 2015, dated 2023).

The subject of one assay is yeast mitochondria. As to the kind of experiment: SYTO 16 staining of active mitochondria (microscopy). Type of assay: cell-based. The settings on record: SYTO 16 stain. An excerpt: We determined that ionic liquids were more toxic to cells grown on glycerol compared to glucose (FIG. 3A). Using microscopy, we explored the effect of ionic liquids on mitochondria. […] Untreated cells had normal mitochondrial morphology, and at higher doses, mitochondria structures in cells disappeared indicating a loss of functional mitochondria. Finally, we used FACS analysis with the stain 3,3-Dioctadecyloxacarbocyanine perchlorate (“DiO”), which has differential fluorescence depending on mitochondrial membrane potential. In the presence of ionic liquids, we observed a fluorescence shift of DiO, indicating reduced mitochondrial membrane potential (FIGS. 3C-D). Valinomycin was used as a positive control. Hydroxyurea and benomyl were included as negative control agents that causes cell death through a mechanism unrelated to the mitochondria.

Assay [1] deals with PTK2 deletion mutant in a lab strain background. As to the kind of experiment: Growth inhibition IC50, PTK2 deletion mutant in lab strain. Type of assay: cell-based, S. cerevisiae. The conditions noted are these: deletion mutant of PTK2 in the lab strain. How it is done: Compounds, initial screening, and IC50 determination: Compounds tested were purchased from Sigma-Aldrich. Cells of S. cerevisiae (MATαpdr1Δ::natMXpdr3Δ::KI.URA3 snq2Δ::KI.LEU2 can1Δ::STE2pr-Sp_his5 lyp1Δhis3Δ1 leu2Δ0 ura3Δ0 met15Δ0), referred to as control strain, were grown in 200 μl cultures at 30° C. in YPD, with a drug or DMSO control. Plates were read on a TECAN M1000 over a 48 hour growth period. The specific growth rate was calculated using GCAT analysis software (available at cat3-pub.glbrc.org on the World Wide Web) (Sato et al., 2013). When presented, IC50 values for growth inhibition were calculated from triplicate 8 point dose curves and SigmaPlot 12.0. When presented, error bars are mean±standard error (S.E.) of at least 3 replicates.

Assay [2] has as its system S. cerevisiae deletion mutants. As to the kind of experiment: Chemical genomic profiling of pooled deletion mutants. Type of assay: cell-based. The conditions noted are these: listed as EMIM-CI.
Assay [3] relates to yeast overexpressing PMA1 or PTK2. The experiment in a line: Tolerance of PMA1 / PTK2 overexpression strains. The format is cell-based.
Assay [4] has as its system xylose fermenting yeast GLBRCY133. As to the kind of experiment: Growth inhibition IC50, xylose fermenting yeast Y133. Type of assay: cell-based, S. cerevisiae. The settings on record: Y133 and Y133 ptk2Δ.
Assay [5] relates to Y133 ptk2Δ. The format is cell-based, S. cerevisiae. The settings on record: relative to Y133, p<0.01. The protocol: Compounds, initial screening, and IC50 determination: Compounds tested were purchased from Sigma-Aldrich. […] Plates were read on a TECAN M1000 over a 48 hour growth period. […] When presented, IC50 values for growth inhibition were calculated from triplicate 8 point dose curves and SigmaPlot 12.0. When presented, error bars are mean±standard error (S.E.) of at least 3 replicates.

Assay [6] deals with Y133 ptk2Δ. Type of assay: cell-based, S. cerevisiae. The settings on record: in the presence of 1% EMIM-Cl, versus Y133. An excerpt:
We deleted PTK2 in our xylose fermenting yeast GLBRCY133 (Parreiras et al.,2014).

Take `CCn1cc[n+](C)c1.[Cl-]` [EMIM-Cl, 1-ethyl-3-methylimidazolium chloride]: the “effect on staining of active mitochondria” value with yeast mitochondria is “dose-dependent effect”. Besides, the resistant to concentration entry in assay [1] was “over 5%”. For the same compound, the “Fold Change” value is on record as 0.1939 in assay [2] (HMI1 deletion mutant), 0.1821 in assay [2] (LYS5 deletion mutant), 0.1576 in assay [2] (MCT1 deletion mutant) and 0.2014 in assay [2] (SHE9 deletion mutant). In assay [3] (PMA1 overexpression, p<0.01), the “EMIM-Cl tolerance on increased expression of PMA1” value is reported as “significant decrease”. Besides, the “EMIM-Cl tolerance on overexpression of PTK2” value in assay [3] (PTK2 overexpression) is “reduced EMIM-Cl tolerance, but not significantly”. Besides, the “effects on growth at pH 6.5 versus pH 5.0” value in assay [4] is “much greater”. Besides, the “tolerance conferred by deletion of PTK2 in Y133” value in the assay with Y133 ptk2Δ [5] was “significantly greater tolerance”. Moreover, the “sugar conversion (glucose and xylose) and ethanol production of PTK2 mutant” value in the assay on Y133 ptk2Δ [6] was “significantly improved”.
